Experimental data taken from EP0641858A1, “SERUM CALCIUM DEPRESSING FACTOR” (Chugai Seiyaku Kabushiki Kaisha, priority 1991, dated 1992).
Non-standard residues stand in square brackets, D forms with d. Residues, ends and D or L forms follow the SMILES beside them. *: point of attachment. Sta = CC(C)C[C@H](N)[C@@H](O)CC(=O)O; Isovaleryl = CC(C)CC(=O)*

Assays:
[1] = target: T1, serum calcium decreasing factor of pig origin (from porcine pancreas), N-terminal sequence SEQ ID NO: 1 (Sus scrofa, UniProt F1SUW2, E34Q/S46R); experiment: Effect of protease inhibitors on protease activity (azo-casein substrate, OD at 340 nm); assay type: biochemical
T1 sequence (F1SUW2 30-268 E34Q/S46R): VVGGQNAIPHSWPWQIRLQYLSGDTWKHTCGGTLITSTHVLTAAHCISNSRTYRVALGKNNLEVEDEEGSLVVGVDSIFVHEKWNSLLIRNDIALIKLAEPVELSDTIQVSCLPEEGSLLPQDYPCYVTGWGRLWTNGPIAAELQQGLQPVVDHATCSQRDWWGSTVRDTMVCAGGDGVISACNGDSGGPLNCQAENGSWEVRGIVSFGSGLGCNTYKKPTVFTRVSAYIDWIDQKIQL
Description: In steps of the purification, since it was observed that a fragment which was assumed to be a degraded fragment of the serum calcium decreasing factor protein, was generated, it is assumed that this serum calcium decreasing factor has proteolytic activity. An effect of various protease inhibitors against the serum calcium decreasing factor protein of this invention was tested as follows: 1 mg/ml azo-casein was used as a substrate, incubation was conducted at temperature of 37°C for 30 min in 0.25 ml, 1 ml of 5% trichloroacetic acid was added thereto, and then the supernatant from centrifugation of the reaction products was measured for OD at 340 nm. The resulting value was used as proteolytic activity. The effect of each protease inhibitor is shown based upon a percentage where proteolytic activity of a control sample without the inhibitor is 100%.
The protease inhibitors used include phenylmethansulfonyl fluoride (PMSF), which is a serin-protease inhibitor; (4-amidinophenyl)-methanesulfonyl fluoride (APMSF), which is a trypsin-type serin-protease inhibitor; leupetin, which is a trypsin-type serin-protease-thiolprotease inhibitor; chymostatin, which is a chymotrypsin-type serinprotease inhibitor; N-[N-3-trans-carboxyoxirane-2-carbonyl)-L-leucyl]agmatine (E-64), which is a thiolprotease inhibitor; pepstatin, which is an acid protease inhibitor; trypsin inhibitors which are inhibitors of trypsin, Xa-factor, plasmin and plasmakallikrein; and aprotinin, which is an inhibitor of trypsin and kallikrein.

[2] = Serum calcium lowering in mice, in vivo assay; conditions: PMSF alone administered to mice (control of Fig. 5)
Description: Male BALB/c mice of 4 to 6 weeks old were starved for 18 hours and 0.1M Tris-HCl buffer (pH 7.5) or 0.1M Tris-HCl buffer containing each of the three peaks dissolved therein was administered through a mouse tail vein at a dose of 100 µl per 20g of the body weight. After 4 hours, blood was drawn from the heart under ether anesthesia and serum was obtained. The serum calcium concentration was measured according to the orth-cresol phthalein complexion method.
Next, lowering of serum calcium concentration by serum calcium decreasing factor in an in vivo assay on mice was tested using serum calcium decreasing factor treated with PMSF and non-treated serum calcium decreasing factor. In the figure, open circles show the result of non-treated serum calcium decreasing factor, closed circles show the result of serum calcium decreasing factor treated with PMSF, and closed boxes show the result (control) wherein PMSF alone was administrated in an amount provided when serum calcium decreasing factor was administrated in an amount shown on the absissa.

[3] = inhibitor 100 µM, 1 mg/ml azo-casein, 37°C, 30 min, control without inhibitor = 100%, read-out: Activity of Protease (per Activity of Control%)

## N=C(N)c1ccc(CS(=O)(=O)F)cc1 [APMSF, (4-amidinophenyl)-methanesulfonyl fluoride]
[1]; inhibitor 50 µM
  inhibition of protease activity (in words): not being inhibited
[1]; inhibitor 50 µM, 1 mg/ml azo-casein, 37°C, 30 min, control without inhibitor = 100%
  Activity of Protease (per Activity of Control%): 107.0%

## CC(C)CC(=O)N[C@H](C(=O)N[C@H](C(=O)N[C@@H](CC(C)C)[C@@H](O)CC(=O)N[C@@H](C)C(=O)N[C@@H](CC(C)C)[C@@H](O)CC(=O)O)C(C)C)C(C)C [Pepstatin] (Isovaleryl-VV[Sta]A[Sta]-OH)
[1]; inhibitor 100 µM
  inhibition of protease activity (in words): partially inhibited
[1]; [3]
  remaining activity at 100 µM: 67.9%

## CC(=O)N[C@@H](CC(C)C)C(=O)N[C@@H](CC(C)C)C(=O)N[C@H](C=O)CCCNC(=N)N [Leupeptin]
[1]; inhibitor 100 µM
  inhibition of protease activity (in words): partially inhibited
[1]; [3]
  remaining activity at 100 µM: 86.8%

## O=S(=O)(F)Cc1ccccc1 [PMSF, phenylmethansulfonyl fluoride]
[1]; inhibitor 1 mM
  inhibition of protease activity (in words): inhibited
[1]; inhibitor 1 mM, 1 mg/ml azo-casein, 37°C, 30 min, control without inhibitor = 100%
  Activity of Protease (per Activity of Control%): 8.8%
[2]
  lowering of serum calcium: did not lower serum calcium

## CC(C)C[C@H](NC(=O)[C@@H](NC(=O)N[C@@H](Cc1ccccc1)C(=O)O)[C@@H]1CCN=C(N)N1)C(=O)N[C@H](C=O)Cc1ccccc1 [Chymostatin]
[1]; inhibitor 100 µM
  inhibition of protease activity (in words): inhibited
[1]; [3]
  remaining activity at 100 µM: 16.1%

## CC(C)CC(NC(=O)C1OC1C(=O)O)C(=O)NCCCCN=C(N)N [E-64, N-[N-3-trans-carboxyoxirane-2-carbonyl)-L-leucyl]agmatine]
[1]; inhibitor 2.5 µg/ml
  inhibition of protease activity (in words): not being inhibited
[1]; inhibitor 2.5 µg/ml, 1 mg/ml azo-casein, 37°C, 30 min, control without inhibitor = 100%, read-out: Activity of Protease (per Activity of Control%)
  remaining activity at 2.5 µg/mL: 108%
